Measured values published in ChEMBL document CHEMBL1201862, “PubChem BioAssay data set” (2004).
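Values below derive from 48-hour exposures of cells grown in 96-well plates, with endpoints linearly interpolated between the two concentrations bracketing the appropriate inhibition level. Abbreviation: GI50, concentration required for 50% inhibition of growth.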 The source made the active and inactive calls. Cut-off read from the data, not from the text of the source: active = GI50 up to about 1.1 µM and inactive = higher.

Columns and labels:
Assay in all cases: NCI anticancer screen, dose series, 48 h
A549 = tested on: A549
LOX IMVI = tested on: LOX IMVI
SK-OV-3 = tested on: SK-OV-3
SNB-19 = tested on: SNB-19
A498 = tested on: A498
HL-60 = tested on: HL-60
UO-31 = tested on: UO-31
SW-620 = tested on: SW-620
KM12 = tested on: KM12
HT-29 = tested on: HT-29
OVCAR-3 = tested on: OVCAR-3
OVCAR-8 = tested on: OVCAR-8
SNB-75 = tested on: SNB-75
SF-268 = tested on: SF-268
NCI-H226 = tested on: NCI-H226
MDA-MB-231 = tested on: MDA-MB-231
T47D = tested on: T47D
MCF7 = tested on: MCF7
BT-549 = tested on: BT-549

Measured: GI50

O=C(Nc1cc(Cl)ccc1Cl)C(=O)C(c1cnc2ccccc2n1)[N+](=O)[O-] (configuration not stated)
inactive: A549 > 100 µM | LOX IMVI > 100 µM | SK-OV-3 > 100 µM | SNB-19 > 100 µM | A498 > 100 µM | HL-60 > 100 µM | UO-31 > 100 µM | SW-620 > 100 µM | KM12 > 100 µM | HT-29 > 100 µM | OVCAR-3 > 100 µM | OVCAR-8 > 100 µM | SNB-75 > 100 µM | SF-268 > 100 µM | NCI-H226 > 100 µM

COC(=O)C(C)(/N=C/c1ccccc1)c1ccccc1 (configuration not stated)
inactive: A549 > 100 µM | LOX IMVI > 100 µM | SK-OV-3 > 100 µM | SNB-19 > 100 µM | A498 > 100 µM | HL-60 > 100 µM | UO-31 > 100 µM | SW-620 > 100 µM | KM12 > 100 µM | MDA-MB-231 > 100 µM | T47D > 100 µM | HT-29 > 100 µM | OVCAR-3 > 100 µM | OVCAR-8 > 100 µM | SNB-75 > 100 µM | SF-268 > 100 µM | MCF7 > 100 µM | NCI-H226 > 100 µM

Cc1ccc(N2C(=O)/C(=C/c3ccc(N(CCC#N)CCC#N)cc3)N=C2COc2ccc(Cl)cc2Cl)cc1
inactive: A549 > 100 µM | LOX IMVI > 100 µM | SK-OV-3 > 100 µM | SNB-19 > 100 µM | HL-60 > 100 µM | UO-31 > 100 µM | SW-620 > 100 µM | KM12 > 100 µM | HT-29 > 100 µM | OVCAR-3 > 100 µM | OVCAR-8 > 100 µM | SNB-75 > 100 µM | SF-268 > 100 µM | NCI-H226 > 100 µM

Nc1ccccc1CC(O)C(=O)O (configuration not stated)
inactive: A549 > 100 µM | LOX IMVI > 100 µM | SK-OV-3 > 100 µM | SNB-19 > 100 µM | A498 > 100 µM | HL-60 > 100 µM | SW-620 > 100 µM | KM12 > 100 µM | MDA-MB-231 > 100 µM | T47D > 100 µM | HT-29 > 100 µM | OVCAR-3 > 100 µM | OVCAR-8 > 100 µM | SNB-75 > 100 µM | SF-268 > 100 µM | MCF7 > 100 µM | NCI-H226 > 100 µM

COc1ccc(C=C2C(C)=NN(c3cccc(Cl)c3)C23C(Cl)C(=O)N3c2nc3ccccc3s2)cc1 (configuration not stated)
inactive: LOX IMVI 17.7 µM | SK-OV-3 28.6 µM | A498 18.5 µM | HL-60 2.05 µM | UO-31 16.3 µM | SW-620 5.6 µM | KM12 13.6 µM | MDA-MB-231 12.9 µM | T47D 24.6 µM | HT-29 9.51 µM | OVCAR-3 19.4 µM | OVCAR-8 18.9 µM | SF-268 4.89 µM | MCF7 17.5 µM | NCI-H226 21.4 µM

COC(=O)c1c2c(cc3c1CC1(Cc4cc5c(cc4C1)CCCC5)C3)CCCC2
active: SNB-75 0.155 µM
inactive: A549 46.3 µM | LOX IMVI > 100 µM | SK-OV-3 > 100 µM | A498 > 100 µM | HL-60 80.4 µM | UO-31 > 100 µM | KM12 > 100 µM | MDA-MB-231 > 100 µM | T47D > 100 µM | HT-29 > 100 µM | OVCAR-3 > 100 µM | OVCAR-8 > 100 µM | MCF7 > 100 µM

Cc1cc(-c2cccc3ccccc23)c(C#N)c(=S)n1C1OC(CO)C(O)C(O)C1O (configuration not stated)
active: SNB-75 0.0379 µM
inactive: A549 > 100 µM | LOX IMVI > 100 µM | SK-OV-3 > 100 µM | A498 > 100 µM | HL-60 > 100 µM | SW-620 > 100 µM | KM12 > 100 µM | MDA-MB-231 > 100 µM | T47D 52.7 µM | HT-29 > 100 µM | OVCAR-3 > 100 µM | OVCAR-8 > 100 µM | MCF7 > 100 µM | NCI-H226 50 µM

CC1CN=C(Nc2ccc(F)cc2F)S1 (configuration not stated)
inactive: A549 > 100 µM | LOX IMVI > 100 µM | SK-OV-3 > 100 µM | SNB-19 > 100 µM | A498 > 100 µM | HL-60 > 100 µM | UO-31 > 100 µM | SW-620 > 100 µM | KM12 > 100 µM | MDA-MB-231 > 100 µM | T47D 88.9 µM | OVCAR-3 > 100 µM | OVCAR-8 > 100 µM | SNB-75 70.3 µM | SF-268 > 100 µM | MCF7 > 100 µM

NC1CNC(=O)c2cscc21 (configuration not stated)
inactive: A549 > 100 µM | BT-549 > 100 µM | LOX IMVI > 100 µM | SNB-19 > 100 µM | A498 > 100 µM | HL-60 > 100 µM | UO-31 > 100 µM | SW-620 > 100 µM | KM12 > 100 µM | HT-29 > 100 µM | OVCAR-3 > 100 µM | SF-268 > 100 µM | MCF7 > 100 µM

CC(C)(c1ccc(OC#N)cc1)c1ccc(OC#N)cc1
inactive: A549 > 100 µM | LOX IMVI > 48.4 µM | SK-OV-3 > 100 µM | SNB-19 > 100 µM | A498 > 100 µM | HL-60 > 55 µM | UO-31 > 100 µM | SW-620 > 100 µM | KM12 > 100 µM | HT-29 > 100 µM | OVCAR-3 > 100 µM | OVCAR-8 > 100 µM | SNB-75 > 52.5 µM | SF-268 > 66.5 µM | NCI-H226 > 100 µM

O=C(CBr)c1ccc2cc(Br)c3ccccc3c2c1
inactive: A549 27.2 µM | BT-549 18.2 µM | LOX IMVI 36.3 µM | SNB-19 31.9 µM | HL-60 25.9 µM | UO-31 25.6 µM | SW-620 25.2 µM | KM12 17.8 µM | MDA-MB-231 18.2 µM | HT-29 32.3 µM | OVCAR-3 20.6 µM | OVCAR-8 24.2 µM | SNB-75 25.6 µM | SF-268 20.3 µM | MCF7 26.4 µM | NCI-H226 9.33 µM

Fc1ccc(-c2sc(-c3ccsc3)cc2Cc2ccsc2)cc1
inactive: A549 > 10 µM | LOX IMVI > 10 µM | SK-OV-3 > 10 µM | HL-60 > 10 µM | SW-620 > 10 µM | KM12 > 10 µM | MDA-MB-231 > 10 µM | T47D > 10 µM | HT-29 > 10 µM | OVCAR-8 > 10 µM | SNB-75 > 10 µM | SF-268 > 10 µM | MCF7 > 10 µM

c1nc(OCC2CCCCC2)c2nc[nH]c2n1
inactive: A549 66.4 µM | BT-549 > 100 µM | LOX IMVI 34.9 µM | SK-OV-3 43.7 µM | SNB-19 > 100 µM | HL-60 > 100 µM | UO-31 42.9 µM | SW-620 59.6 µM | KM12 54.1 µM | MDA-MB-231 63.2 µM | HT-29 49.9 µM | OVCAR-3 53.1 µM | OVCAR-8 47.2 µM | SNB-75 51.4 µM | SF-268 44.5 µM | NCI-H226 26.9 µM
